Format in all cases: biochemical
Experiment [1] concerns the target CDK1/CCNB1 (Homo sapiens, UniProt P06493). Description: CDK1 homogeneous time-resolved fluorescence (HTRF) kinase assay. The conditions noted are these: CDK1/CCNB. An outline of the steps:
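0.5 nM CDK1/CCNB1 was preincubated 20 min at 23 °C with compound in HEPES pH-unspecified buffer (MgCl2, EGTA, DTT, Tween 20), then reacted 60 min with 1 mM ATP and 50 nM ULight-4E-BP1 (Thr37/46) peptide. EDTA-stopped reactions were detected with 2 nM Eu-anti-phospho antibody; IC50 from 11-point half-log titrations.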

For experiment [2], the target named is CDK4/CCND3 (Homo sapiens, UniProt P11802). Description: CDK4 homogeneous time-resolved fluorescence (HTRF) kinase assay. The note with it: CDK4/CCND. The method, boiled down: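 HTRF kinase assay, CDK4/CCND3 1.5 nM, ATP 1 mM, ULight-4E-BP1 peptide 50 nM, 23 °C, 60 min reaction after 20 min preincubation. Eu-anti-pThr37/46 antibody detection. 11-pt half-log curves from 10 μM → IC50.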
CDK4/CCND3, sequence (P11802 whole entry): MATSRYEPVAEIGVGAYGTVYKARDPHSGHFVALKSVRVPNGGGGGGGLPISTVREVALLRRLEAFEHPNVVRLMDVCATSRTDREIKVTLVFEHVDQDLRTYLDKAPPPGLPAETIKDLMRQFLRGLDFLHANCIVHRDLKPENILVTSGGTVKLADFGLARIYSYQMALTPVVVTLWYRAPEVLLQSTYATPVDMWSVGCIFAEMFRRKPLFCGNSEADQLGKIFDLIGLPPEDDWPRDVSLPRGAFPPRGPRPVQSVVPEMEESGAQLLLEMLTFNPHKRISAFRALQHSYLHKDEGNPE
CDK4/CCND3, sequence (P30281 whole entry partner): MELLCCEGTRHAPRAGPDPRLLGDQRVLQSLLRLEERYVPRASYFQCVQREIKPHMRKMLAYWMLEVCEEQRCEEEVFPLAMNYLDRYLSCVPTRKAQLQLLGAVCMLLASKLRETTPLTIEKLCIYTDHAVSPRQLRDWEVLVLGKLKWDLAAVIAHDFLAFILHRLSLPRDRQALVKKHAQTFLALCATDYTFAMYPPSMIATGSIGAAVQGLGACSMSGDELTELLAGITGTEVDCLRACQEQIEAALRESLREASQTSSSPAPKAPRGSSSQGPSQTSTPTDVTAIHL
(In general: TR-FRET usually uses a lanthanide donor and a delayed reading to cut background.)

For experiment [3], the target named is CDK2/CCNE1 (Homo sapiens, UniProt P24941). Description: CDK2 homogeneous time-resolved fluorescence (HTRF) kinase assay. The note with it: CDK2/CCNE. The method, boiled down: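 IC50 derived from 11-point, half-log dilutions (usually top 10 μM) of compound, 1% DMSO. Kinase (3 nM CDK2/CCNE1) was preincubated with compound 20 min, then phosphorylated 50 nM ULight-4E-BP1 peptide at 1 mM ATP for 60 min, 23 °C. Europium-antibody TR-FRET read after EDTA stop.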

Experiment [4] deals with CDK6/CCND1 (Homo sapiens, UniProt Q00534). Nature of the experiment: CDK6 homogeneous time-resolved fluorescence (HTRF) kinase assay. The conditions noted are these: CDK6/CCND. The method, boiled down:
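Recombinant CDK6/CCND1 (1 nM final) was preincubated with compound for 20 min at 23 °C in HEPES buffer with MgCl2, EGTA, DTT and Tween 20. Kinase reaction then ran 60 min at 23 °C with 1 mM ATP and 50 nM ULight-4E-BP1 (Thr37/46) peptide, and was stopped with EDTA.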

The mark [5] stands for this setting: 25-250 nM marked x, read-out: CDK1/CCNB IC50 25-250 nM.
Setting [6] is: <25 nM, read-out: CDK4/CCND IC50 <25 nM.
Setting [7] is: <25 nM, read-out: CDK2/CCNE IC50 <25 nM.
The mark [8] stands for this setting: <25 nM, read-out: CDK6/CCND IC50 <25 nM.
[9] abbreviates: 25-250 nM marked x, read-out: CDK4/CCND IC50 25-250 nM.
Setting [10] is: x = IC50 25-250 nM, read-out: CDK1/CCNB IC50 (25-250 nM).
The mark [11] stands for this setting: x = IC50 >250 nM, read-out: CDK4/CCND IC50 (>250 nM column).
Setting [12] is: x = IC50 <25 nM, read-out: CDK2/CCNE IC50 (<25 nM).
[13] abbreviates: x = IC50 >250 nM, read-out: CDK6/CCND IC50 (>250 nM column).
[14] abbreviates: x = IC50 >250 nM, read-out: CDK1/CCNB IC50 (>250 nM column).

Where two headings read alike, the source gives them in different places.

CDK6/CCND1, sequence (Q00534 whole entry): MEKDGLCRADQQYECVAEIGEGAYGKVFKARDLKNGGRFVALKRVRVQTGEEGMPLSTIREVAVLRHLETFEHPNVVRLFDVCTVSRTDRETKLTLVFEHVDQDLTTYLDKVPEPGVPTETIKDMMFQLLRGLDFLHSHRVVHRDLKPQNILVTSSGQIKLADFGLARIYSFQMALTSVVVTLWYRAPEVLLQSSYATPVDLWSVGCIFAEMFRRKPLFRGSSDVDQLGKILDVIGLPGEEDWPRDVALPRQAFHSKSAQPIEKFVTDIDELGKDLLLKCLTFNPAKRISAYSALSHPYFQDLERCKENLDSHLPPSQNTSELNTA
CDK6/CCND1, sequence (P24385 whole entry partner): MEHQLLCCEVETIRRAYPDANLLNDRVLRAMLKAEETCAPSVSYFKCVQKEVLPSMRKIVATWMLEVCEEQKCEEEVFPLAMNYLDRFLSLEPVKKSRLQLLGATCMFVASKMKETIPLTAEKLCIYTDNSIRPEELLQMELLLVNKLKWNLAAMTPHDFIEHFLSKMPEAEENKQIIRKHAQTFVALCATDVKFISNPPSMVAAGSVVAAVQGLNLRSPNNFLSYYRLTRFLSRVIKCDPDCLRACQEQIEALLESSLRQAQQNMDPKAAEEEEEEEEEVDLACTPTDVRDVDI
CDK1/CCNB1, sequence (P06493 whole entry): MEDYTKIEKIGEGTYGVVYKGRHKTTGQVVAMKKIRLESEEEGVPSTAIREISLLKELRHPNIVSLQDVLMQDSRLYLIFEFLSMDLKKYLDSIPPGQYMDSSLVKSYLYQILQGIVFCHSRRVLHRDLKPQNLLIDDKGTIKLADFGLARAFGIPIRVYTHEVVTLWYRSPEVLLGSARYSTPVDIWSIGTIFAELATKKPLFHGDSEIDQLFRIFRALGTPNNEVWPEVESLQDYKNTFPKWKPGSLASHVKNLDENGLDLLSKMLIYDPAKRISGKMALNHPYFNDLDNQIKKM
CDK1/CCNB1, sequence (P14635 whole entry partner): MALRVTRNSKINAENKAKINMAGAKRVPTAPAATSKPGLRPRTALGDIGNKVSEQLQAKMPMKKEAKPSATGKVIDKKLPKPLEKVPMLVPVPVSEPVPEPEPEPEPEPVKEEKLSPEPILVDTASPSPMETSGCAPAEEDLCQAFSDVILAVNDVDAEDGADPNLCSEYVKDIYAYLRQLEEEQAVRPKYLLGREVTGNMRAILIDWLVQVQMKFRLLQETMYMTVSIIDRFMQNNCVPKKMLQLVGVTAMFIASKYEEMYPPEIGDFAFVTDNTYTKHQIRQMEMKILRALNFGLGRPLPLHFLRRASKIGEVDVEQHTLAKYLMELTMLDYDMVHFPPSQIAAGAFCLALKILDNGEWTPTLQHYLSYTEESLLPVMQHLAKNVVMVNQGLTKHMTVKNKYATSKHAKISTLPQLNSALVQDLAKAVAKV

In the case of `CS(=O)(=O)N1CCC(Nc2cc3c(C4CCCCC4)nccc3cn2)CC1` [Example 21, 5-cyclohexyl-N-(1-(methylsulfonyl)piperidin-4-yl)-2,6-naphthyridin-3-amine], the IC50 in experiment [1] (setting [5]) is 0.025 to 0.25 µM; in experiment [2] (setting [6]) it was < 0.025 µM; in experiment [3] (setting [7]) it was < 0.025 µM; in experiment [4] (setting [8]), < 0.025 µM.
For the molecule `CS(=O)(=O)N1CCC(Nc2cc3c(C4CCCC4)nccc3cn2)CC1` [Example 22, 5-cyclopentyl-N-(1-(methylsulfonyl)piperidin-4-yl)-2,6-naphthyridin-3-amine], the IC50 is < 0.025 µM in experiment [1] (<25 nM, read-out: CDK1/CCNB IC50 <25 nM); < 0.025 µM in experiment [2] (setting [6]); < 0.025 µM in experiment [3] (setting [7]); < 0.025 µM in experiment [4] (setting [8]).
For the molecule `CS(=O)(=O)c1ccc(Nc2cc3c(C4CCCC4)nccc3cn2)cc1` [Example 23, 5-cyclopentyl-N-(4-(methylsulfonyl)phenyl)-2,6-naphthyridin-3-amine], the IC50 in experiment [1] (setting [5]) is 0.025 to 0.25 µM; in experiment [2] (setting [9]), 0.025 to 0.25 µM; in experiment [3] (setting [7]), < 0.025 µM; in experiment [4] (25-250 nM marked x, read-out: CDK6/CCND IC50 25-250 nM) it was 0.025 to 0.25 µM.
For `C=CS(=O)(=O)N1CCC(Nc2cc3c(-c4cccc(C#N)c4)nccc3cn2)CC1` [Example 24, 3-(7-((1-(vinylsulfonyl)piperidin-4-yl)amino)-2,6-naphthyridin-1-yl)benzonitrile], the IC50 in experiment [1] (>250 nM marked x, read-out: CDK1/CCNB IC50 >250 nM) is > 0.25 µM; in experiment [2] (setting [9]), 0.025 to 0.25 µM; in experiment [3] (setting [7]) it was < 0.025 µM; in experiment [4] (setting [8]), < 0.025 µM.
`COCC1(COC)C(=O)Nc2cc(C#Cc3nccc4cnc(Nc5ccc(S(C)(=O)=O)cc5)cc34)ccc21` [Example 360, 3,3-bis(methoxymethyl)-6-((7-((4-(methylsulfonyl)phenyl)amino)-2,6-naphthyridin-1-yl)ethynyl)indolin-2-one]: the IC50 in experiment [1] (setting [10]) is 0.025 to 0.25 µM; in experiment [2] (setting [11]) it was > 0.25 µM; in experiment [3] (setting [12]), < 0.025 µM; in experiment [4] (setting [13]), > 0.25 µM.
Take `CC1(C)C(=O)Nc2nc(C#Cc3nccc4cnc(Nc5ccc(S(C)(=O)=O)cc5)cc34)ccc21` [Example 374, 3,3-dimethyl-6-((7-((4-(methylsulfonyl)phenyl)amino)-2,6-naphthyridin-1-yl)ethynyl)-1,3-dihydro-2H-pyrrolo[2,3-b]pyridin-2-one]: the IC50 is 0.025 to 0.25 µM in experiment [1] (setting [10]), > 0.25 µM in experiment [2] (setting [11]), < 0.025 µM in experiment [3] (setting [12]) and > 0.25 µM in experiment [4] (setting [13]).
On to `CS(=O)(=O)c1ccc(Nc2cc3c(C#Cc4cc5c(cc4F)C4(CC4)C(=O)N5)nccc3cn2)cc1` [Example 378, 5′-fluoro-6′-((7-((4-(methylsulfonyl)phenyl)amino)-2,6-naphthyridin-1-yl)ethynyl)spiro[cyclopropane-1,3′-indolin]-2′-one], for which the IC50 in experiment [1] (setting [14]) is > 0.25 µM; in experiment [2] (setting [11]), > 0.25 µM; in experiment [3] (setting [12]), < 0.025 µM; in experiment [4] (setting [13]), > 0.25 µM.
As for `CCC1(CC)C(=O)Nc2cc(C#Cc3nccc4cnc(Nc5ccc(S(C)(=O)=O)cc5C)cc34)ccc21` [Example 395, 3,3-diethyl-6-((7-((2-methyl-4-(methylsulfonyl)phenyl)amino)-2,6-naphthyridin-1-yl)ethynyl)indolin-2-one], the IC50 in experiment [1] (setting [14]) is > 0.25 µM; in experiment [2] (setting [11]), > 0.25 µM; in experiment [3] (setting [12]), < 0.025 µM; in experiment [4] (setting [13]), > 0.25 µM.
As for `Nc1ncccc1C#Cc1nccc2cnc(Nc3ccc(S(=O)(=O)C4CCC4)cc3)cc12` [Example 398, 5-((2-aminopyridin-3-yl)ethynyl)-N-(4-(cyclobutylsulfonyl)phenyl)-2,6-naphthyridin-3-amine], the IC50 in experiment [1] (setting [14]) was > 0.25 µM; in experiment [2] (setting [11]) it was > 0.25 µM; in experiment [3] (x = IC50 25-250 nM, read-out: CDK2/CCNE IC50 (25-250 nM)), 0.025 to 0.25 µM; in experiment [4] (setting [13]), > 0.25 µM.
For `Cc1cc(Nc2cc3c(C#Cc4ccc5c(c4)NC(=O)C5(C)C)nccc3cn2)ccc1S(C)(=O)=O` [Example 406, 3,3-dimethyl-6-((7-((3-methyl-4-(methylsulfonyl)phenyl)amino)-2,6-naphthyridin-1-yl)ethynyl)indolin-2-one], the IC50 in experiment [1] (setting [14]) was > 0.25 µM; in experiment [2] (setting [11]) it was > 0.25 µM; in experiment [3] (setting [12]) it was < 0.025 µM; in experiment [4] (setting [13]), > 0.25 µM.

Values taken from patent US20260325533A1, “CDK INHIBITOR COMPOUNDS” (ALEKSIA THERAPEUTICS, INC., priority 2023, published 2026).
